The results in this text go back to PubChem BioAssay AID1918945 (Molecular Pharmacology Branch, DTP, NCI, 2023).

SMILES strings stand for the structures. “And” between values parts separate entries of the source, which are not always exact repeats. Identical values can stand only once.

The subject of the assay is 883617-216-R-J1-PDC complex spheroid viability. The assay can be described thus: Anticancer human tumor 883617-216-R-J1-PDC patient-derived bladder carcinoma cell line growth inhibition. To be noted: for viability, T/C: stronger effect = lower value. An outline of the steps: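 Drug combinations with the LSD1 inhibitor iadademstat tested on tumor cells co-cultured as spheroids with endothelial cells and mesenchymal stem cells. Concentrations descended in half-log increments from clinical Cmax or 10 microM.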

Where [1] appears, read: curve of first compound, second compound 0.1 µM.
Setting [2] is: curve of first compound, second compound 0.316 µM.
The mark [3] stands for this setting: curve of first compound, second compound 1 µM.
[4] abbreviates: curve of first compound, second compound 3.16 µM.
The mark [5] stands for this setting: curve of first compound, second compound 10 µM.
The mark [6] stands for this setting: second compound 0.1 µM, first compound 0.00949 µM.
Setting [7] is: second compound 0.1 µM, first compound 0.03 µM.
The mark [8] stands for this setting: second compound 0.1 µM, first compound 0.0949 µM.
Where [9] appears, read: second compound 0.1 µM, first compound 0.3 µM.
The mark [10] stands for this setting: second compound 0.1 µM, first compound 0.949 µM.
Setting [11] is: second compound 0.1 µM, first compound 3 µM.
The mark [12] stands for this setting: second compound 0.316 µM, first compound 0.00949 µM.
Setting [13] is: second compound 0.316 µM, first compound 0.03 µM.
The mark [14] stands for this setting: second compound 0.316 µM, first compound 0.0949 µM.
The mark [15] stands for this setting: second compound 0.316 µM, first compound 0.3 µM.
Where [16] appears, read: second compound 0.316 µM, first compound 0.949 µM.
Setting [17] is: second compound 0.316 µM, first compound 3 µM.
[18] abbreviates: second compound 1 µM, first compound 0.00949 µM.
[19] abbreviates: second compound 1 µM, first compound 0.03 µM.
Setting [20] is: second compound 1 µM, first compound 0.0949 µM.
Setting [21] is: second compound 1 µM, first compound 0.3 µM.
Setting [22] is: second compound 1 µM, first compound 0.949 µM.
The mark [23] stands for this setting: second compound 1 µM, first compound 3 µM.
Where [24] appears, read: second compound 3.16 µM, first compound 0.00949 µM.
Setting [25] is: second compound 3.16 µM, first compound 0.03 µM.
Where [26] appears, read: second compound 3.16 µM, first compound 0.0949 µM.
Setting [27] is: second compound 3.16 µM, first compound 0.3 µM.
[28] abbreviates: second compound 3.16 µM, first compound 0.949 µM.
Setting [29] is: second compound 3.16 µM, first compound 3 µM.
Setting [30] is: second compound 10 µM, first compound 0.00949 µM.
Where [31] appears, read: second compound 10 µM, first compound 0.03 µM.
Setting [32] is: second compound 10 µM, first compound 0.0949 µM.
Setting [33] is: second compound 10 µM, first compound 0.3 µM.
The mark [34] stands for this setting: second compound 10 µM, first compound 0.949 µM.
Where [35] appears, read: second compound 10 µM, first compound 3 µM.
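Further: exposure lasted seven days after three days of spheroid growth.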
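Wherever viability, T/C is given: 100% = DMSO vehicle control luminescence.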

Take `CC(C)c1c(-c2ccccc2)nc2c(C#N)c[nH]n2c1=O`: the viability, T/C (in general, the result in the treated group divided by that in the control group, in per cent) reads like this: (compound 0.0316 µM) 97.4% and 97.3%; (compound 0.1 µM) 97.7% and 103%; (compound 0.316 µM) 104% and 111%; (compound 1 µM) 96% and 94.4%; (compound 3.16 µM) 98.8% and 101%; (compound 10 µM) 86.8% and 86.7%. The IC50 (usually the concentration needed to halve the response being measured) (curve of compound) is more than 10000 nM.

For the compound `CC(C)CC(NC(=O)CNC(=O)c1cc(Cl)ccc1Cl)B1OC(=O)CC(CC(=O)O)(C(=O)O)O1` (stereo not given), the viability, T/C is 101% and 95.7% (compound 0.000316 µM); 106% and 87% (compound 0.001 µM); 85% and 52.1% (compound 0.00316 µM); 39.5% and 23.1% (compound 0.01 µM); 15.8% and 1.76% (compound 0.0316 µM); 2.31% and 0.36% (compound 0.1 µM). Further, under “curve of compound”, the IC50 is 7.91 nM and 3.68 nM.

With `CCc1c2c(nc3ccc(O)cc13)-c1cc3c(c(=O)n1C2)COC(=O)[C@]3(O)CC`, the viability, T/C by setting is: (compound 0.000949 µM) 34.5% and 24.9%; (compound 0.003 µM) 27.7% and 18.2%; (compound 0.00949 µM) 22.8% and 18.7%; (compound 0.03 µM) 24.2% and 13%; (compound 0.0949 µM) 1.74% and 0.3%; (compound 0.3 µM) 0.21% and 0.19%. Moreover, the IC50 (curve of compound) was less than 0.949 nM.

Consider `Nc1ncn(C2CC(O)C(CO)O2)c(=O)n1` (stereo not given), for which the viability, T/C was 103% and 98.2% (compound 0.00316 µM); 99.5% and 83.4% (compound 0.01 µM); 96.5% and 72.9% (compound 0.0316 µM); 86.3% and 58.4% (compound 0.1 µM); 73.2% and 54.2% (compound 0.316 µM); 67.8% and 49.4% (compound 1 µM). Also, the IC50 (curve of compound) is > 1000 nM and 870 nM.

For the compound `O=C(C=Cc1cccc(S(=O)(=O)Nc2ccccc2)c1)NO`, the viability, T/C (compound 0.00949 µM) was 97.1% and 80.1%; the viability, T/C (compound 0.03 µM) is 76.2% and 59%; the viability, T/C (compound 0.0949 µM) was 51.9% and 41.6%; the viability, T/C (compound 0.3 µM) was 38.6% and 33.9%; the viability, T/C (compound 0.949 µM) was 28.6% and 14.6%; the viability, T/C (compound 3 µM) is 3.45% and 0.83%. For the same compound, for the setting “curve of compound”, the concentration for half-maximal inhibition (IC50) is 158 nM and 66 nM.

As to `Nc1ccccc1NC(=O)c1ccc(CNC(=O)OCc2cccnc2)cc1` + NC1CCC(NC2CC2c2ccccc2)CC1, the IC50 stood at 206 nM under setting [1]; 205 nM under setting [2]; 233 nM under setting [3]; 216 nM under setting [4]; 235 nM under setting [5]. The viability, T/C was 115% under setting [6]; 89.3% under setting [7]; 73.5% under setting [8]; 39.5% under setting [9]; 15.8% under setting [10]; 0.37% under setting [11]. Besides, the viability, T/C by setting is: under setting [12], 112%; under setting [13], 96.2%; under setting [14], 74.1%; under setting [15], 36.5%; under setting [16], 16.6%; under setting [17], 0.73%. Moreover, the viability, T/C under setting [18] is 104%; the viability, T/C under setting [19] is 90.2%; the viability, T/C under setting [20] was 76.5%; the viability, T/C under setting [21] is 41.4%; the viability, T/C under setting [22] is 17.5%; the viability, T/C under setting [23] is 1.37%. The viability, T/C is, setting by setting: under setting [24], 102%; under setting [25], 103%; under setting [26], 66.6%; under setting [27], 40.4%; under setting [28], 21.5%; under setting [29], 1.18%. For the same compound, the viability, T/C runs as follows: under setting [30], 106%; under setting [31], 88%; under setting [32], 66.5%; under setting [33], 45.9%; under setting [34], 23.6%; under setting [35], 0.93%.

Take `COc1ccc([C@@H](O)c2cc(-c3ncnc4cc(N5CCOCC5)ccc34)c(F)cc2Cl)nn1` + NC1CC1c1ccc(-c2cccc(O)c2)cc1: the IC50 under setting [1] was found to be 877 nM; the IC50 under setting [2] came out at 1030 nM; the IC50 under setting [3] was 902 nM; the half-maximal inhibitory concentration (IC50) under setting [4] worked out at 712 nM; the IC50 under setting [5] stood at 304 nM. Also, the viability, T/C reads like this: (second compound 0.1 µM, first compound 0.0316 µM) 111%; (second compound 0.1 µM, first compound 0.1 µM) 102%; (second compound 0.1 µM, first compound 0.316 µM) 71.5%; (second compound 0.1 µM, first compound 1 µM) 46.1%; (second compound 0.1 µM, first compound 3.16 µM) 30.6%; (second compound 0.1 µM, first compound 10 µM) 15.1%. For the same compound, the viability, T/C by setting is: (second compound 0.316 µM, first compound 0.0316 µM) 109%; (second compound 0.316 µM, first compound 0.1 µM) 93.3%; (second compound 0.316 µM, first compound 0.316 µM) 74.4%; (second compound 0.316 µM, first compound 1 µM) 48.8%; (second compound 0.316 µM, first compound 3.16 µM) 31.5%; (second compound 0.316 µM, first compound 10 µM) 15.3%. For the same compound, the viability, T/C reads like this: (second compound 1 µM, first compound 0.0316 µM) 113%; (second compound 1 µM, first compound 0.1 µM) 98.3%; (second compound 1 µM, first compound 0.316 µM) 75%; (second compound 1 µM, first compound 1 µM) 43.8%; (second compound 1 µM, first compound 3.16 µM) 32.7%; (second compound 1 µM, first compound 10 µM) 15.2%. In addition, the viability, T/C was 116% (second compound 3.16 µM, first compound 0.0316 µM); 93.8% (second compound 3.16 µM, first compound 0.1 µM); 58.2% (second compound 3.16 µM, first compound 0.316 µM); 47.2% (second compound 3.16 µM, first compound 1 µM); 27% (second compound 3.16 µM, first compound 3.16 µM); 14.3% (second compound 3.16 µM, first compound 10 µM). Further, the viability, T/C reads like this: (second compound 10 µM, first compound 0.0316 µM) 88%; (second compound 10 µM, first compound 0.1 µM) 71.9%; (second compound 10 µM, first compound 0.316 µM) 42.1%; (second compound 10 µM, first compound 1 µM) 39%; (second compound 10 µM, first compound 3.16 µM) 21.8%; (second compound 10 µM, first compound 10 µM) 12.4%.

Consider `NS(=O)(=O)OCC1CC(n2ccc3c(NC4CCc5ccccc54)ncnc32)CC1O` (stereo not given) + NC1CCC(NC2CC2c2ccccc2)CC1, for which the IC50 runs as follows: under setting [1], 399 nM; under setting [2], 497 nM; under setting [3], 453 nM; under setting [4], 500 nM; under setting [5], 392 nM. The viability, T/C under setting [6] was 111%; the viability, T/C under setting [7] is 121%; the viability, T/C under setting [8] was 106%; the viability, T/C under setting [9] is 59.8%; the viability, T/C under setting [10] is 20.7%; the viability, T/C under setting [11] is 15.2%. In addition, the viability, T/C is 118% under setting [12]; 113% under setting [13]; 113% under setting [14]; 73.8% under setting [15]; 19.4% under setting [16]; 15.6% under setting [17]. The viability, T/C was 102% under setting [18]; 116% under setting [19]; 105% under setting [20]; 67% under setting [21]; 19.5% under setting [22]; 14% under setting [23]. Moreover, the viability, T/C runs as follows: under setting [24], 101%; under setting [25], 106%; under setting [26], 99.5%; under setting [27], 73.8%; under setting [28], 20.2%; under setting [29], 13.7%. In addition, the viability, T/C is 113% under setting [30]; 117% under setting [31]; 107% under setting [32]; 58.9% under setting [33]; 20.8% under setting [34]; 14.6% under setting [35].
